Laboratory results: paper PMC8228600, “Design, Synthesis, In Vitro and In Vivo Evaluation of Heterobivalent SiFAlin-Modified Peptidic Radioligands Targeting Both Integrin αvβ3 and the MC1 Receptor—Suitable for the Specific Visualization of Melanomas?” (Pharmaceuticals, 2021)
Like-named read-outs stand apart in the source and are kept apart here.

Columns and labels:
[1] = Ex vivo biodistribution in tumor-bearing nude mice (non-tumor tissues); conditions: male, Balb/cAnNRj-Foxn1nu/nu (nude), mouse, iv, total radioactivity, ex vivo after PET/CT scan, i.v., n = 3
Method: (§1) For the evaluation of the in vivo pharmacokinetics, the two most promising HBPLs—[^18F]2 with the highest affinity to both target receptors and [^18F]4 with the highest hydrophilicity and still reasonable binding affinities—were selected. For PET/CT imaging, 6-week-old male nude mice (Balb/cAnNRj-Foxn1^nu/nu) were subcutaneously injected with 5 × 10^5 B16F10 cells into the right flank and 2.0–2.5 × 10^6 U87MG cells into the left flank to generate the respective receptor-positive tumors. When the tumors reached a sufficient size for imaging, each mouse was administered 4.15 ± 2.28 MBq of [^18F]2 or 3.95 ± 2.06 MBq of [^18F]4 via the lateral tail vein under isoflurane anesthesia. To determine the receptor specificity of both peptide parts of the labeled HBPLs and their relative contribution to overall tumor uptake, blocking experiments were also performed. […] After i.v. injection of the tracers, a dynamic PET scan, followed by a CT scan, was performed. The resulting PET/CT images and time–activity curves (TACs) are depicted in Figure 6, Figure 7 and Figure 8. After completion of the diagnostic scans, the mice were sacrificed, their organs (blood, spleen, liver, kidney, pancreas, lung, heart, brain, bone, muscle, tail, tumors, stomach, colon and small intestine) were collected and measured in a γ-counter for ex vivo biodistribution (see Supplementary Materials Table S1 for detailed results).
(§2) Each male nude mouse (six weeks old) was injected subcutaneously with 5 × 10^5 B16F10 cells into the right flank and 2.0–2.5 × 10^6 U87MG cells into the left flank. The health status and tumor growth of the mice were monitored regularly until the animals could be examined after 15–21 days, depending on the tumor size. For the in vivo experiments, the ^18F-radiolabeled compound was diluted in 0.9% saline to give a final EtOH concentration of <10%. Each mouse was injected with 4.15 ± 2.28 MBq of [^18F]2 or 3.95 ± 2.06 MBq of [^18F]4 via the lateral tail vein under isoflurane anesthesia. […] Each ^18F-labeled compound was studied with or without blocking in at least three mice. Mice were measured under isoflurane anesthesia in a small PET/SPECT/CT animal imaging system. First, a dynamic PET scan was performed over 90 min and the scan was framed in 29 timeframes (10 × 1 min, 10 × 2 min, 6 × 5 min, 3 × 10 min). Images were reconstructed using 12 iterations, a maximum likelihood expectation maximization (MLEM) algorithm including corrections for scattered radiation and decay and a voxel size of 0.5 mm. All PET scans were immediately followed by CT acquisition at a voltage of 45 kV and a current of 400 μA. The images were reconstructed using the filtered back projection (FBP) algorithm with a voxel size of 250 μm. The analysis of the data, including the generation of TACs of the kidneys, liver and tumors and the MIPs, was performed via PMOD (v3.8). For ex vivo biodistribution, the mice were sacrificed directly after the PET/CT scan. Organs (blood, spleen, liver, kidneys, pancreas, lungs, heart, brain, bone, muscle, tail, tumors, stomach, colon and small intestine) were collected, weighed and their radioactivity measured in a γ-counter. The percentage injected dose per gram (% ID/g) of each tissue was calculated from the determined values, organ weights, reference values and injected activity.

[2] = Ex vivo biodistribution: uptake in B16F10 tumors and tumor-to-organ ratios; design: species or system nude mice (Balb/cAnNRj-Foxn1nu/nu); conditions: male, Balb/cAnNRj-Foxn1nu/nu (nude), mouse, iv, total radioactivity; for tissue uptake: B16F10 tumor (MC1R-positive); for tissue to tissue ratio: ex vivo biodistribution, mean (n = 3) ± SD
Method: as §1, §2

[3] = system: MC1R-positive B16F10 tumors; assay: as above; design: species or system nude mice (Balb/cAnNRj-Foxn1nu/nu); conditions: NDP blocking (20 μg coinjected); ex vivo after PET/CT scan; i.v.; n = 3
Method: as §1, §2

## CCCC[C@H](NC(=O)CNC(=O)CNC(=O)CCOCCOCCOCCOCCOCCOCCOCCOCCOCCC(=O)NCCCN(CCCNC(=O)CCOCCOCCOCCOCCOCCOCCOCCOCCOCCC(=O)NCCCC[C@@H]1NC(=O)[C@@H](Cc2ccccc2)NC(=O)[C@H](CC(=O)O)NC(=O)CNC(=O)[C@H](CCCNC(=N)N)NC1=O)CC(=O)N[C@@H](CCCCNC(=O)CCC[N+](C)(C)Cc1ccc([Si](F)(C(C)(C)C)C(C)(C)C)cc1)C(N)=O)C(=O)N[C@H]1CC(=O)NCCCC[C@@H](C(N)=O)NC(=O)[C@H](Cc2c[nH]c3ccccc23)NC(=O)[C@H](CCCNC(=N)N)NC(=O)[C@@H](Cc2ccccc2)NC(=O)[C@H](Cc2c[nH]cn2)NC1=O [[^18F]4]
[1]; blood, NDP blocking (20 μg coinjected), read-out: ID/g, blood
  tissue uptake at 1.5 h: 2.07 ± 0.94 %ID/g
[1]; blood, c(RGDyK) blocking (200 μg coinjected), read-out: ID/g, blood
  tissue uptake at 1.5 h: 0.83 ± 0.06 %ID/g
[1]; blood, double blocking (NDP + c(RGDyK)), read-out: ID/g, blood
  tissue uptake at 1.5 h: 1 ± 0.15 %ID/g
[1]; blood, without blocking, read-out: ID/g, blood
  tissue uptake at 1.5 h: 0.59 ± 0.08 %ID/g
[1]; bone, NDP blocking (20 μg coinjected), read-out: ID/g, bone
  tissue uptake at 1.5 h: 4.61 ± 0.71 %ID/g
[1]; bone, c(RGDyK) blocking (200 μg coinjected), read-out: ID/g, bone
  tissue uptake at 1.5 h: 4.99 ± 0.71 %ID/g
[1]; bone, double blocking (NDP + c(RGDyK)), read-out: ID/g, bone
  tissue uptake at 1.5 h: 2.99 ± 0.78 %ID/g
[1]; bone, without blocking, read-out: ID/g, bone
  tissue uptake at 1.5 h: 18.1 ± 6.02 %ID/g
[1]; brain, NDP blocking (20 μg coinjected), read-out: ID/g, brain
  tissue uptake at 1.5 h: 0.19 ± 0.07 %ID/g
[1]; brain, c(RGDyK) blocking (200 μg coinjected), read-out: ID/g, brain
  tissue uptake at 1.5 h: 0.07 ± 0.02 %ID/g
[1]; brain, double blocking (NDP + c(RGDyK)), read-out: ID/g, brain
  tissue uptake at 1.5 h: 0.07 ± 0.01 %ID/g
[1]; brain, without blocking, read-out: ID/g, brain
  tissue uptake at 1.5 h: 0.1 ± 0.03 %ID/g
[1]; colon, NDP blocking (20 μg coinjected), read-out: ID/g, colon
  tissue uptake: 0.96 ± 0.13 %ID/g
[1]; colon, c(RGDyK) blocking (200 μg coinjected), read-out: ID/g, colon
  tissue uptake: 0.8 ± 0.32 %ID/g
[1]; colon, double blocking (NDP + c(RGDyK)), read-out: ID/g, colon
  tissue uptake: 0.42 ± 0.05 %ID/g
[1]; colon, without blocking, read-out: ID/g, colon
  tissue uptake: 0.77 ± 0.26 %ID/g
[1]; heart, NDP blocking (20 μg coinjected), read-out: ID/g, heart
  tissue uptake at 1.5 h: 0.73 ± 0.06 %ID/g
[1]; heart, c(RGDyK) blocking (200 μg coinjected), read-out: ID/g, heart
  tissue uptake at 1.5 h: 1.51 ± 0.57 %ID/g
[1]; heart, double blocking (NDP + c(RGDyK)), read-out: ID/g, heart
  tissue uptake at 1.5 h: 0.52 ± 0.06 %ID/g
[1]; heart, without blocking, read-out: ID/g, heart
  tissue uptake at 1.5 h: 0.56 ± 0.19 %ID/g
[1]; kidneys, NDP blocking (20 μg coinjected), read-out: ID/g, kidneys
  tissue uptake at 1.5 h: 23.1 ± 4.97 %ID/g
[1]; kidneys, c(RGDyK) blocking (200 μg coinjected), read-out: ID/g, kidneys
  tissue uptake at 1.5 h: 21.4 ± 4.04 %ID/g
[1]; kidneys, double blocking (NDP + c(RGDyK)), read-out: ID/g, kidneys
  tissue uptake at 1.5 h: 26.5 ± 6.59 %ID/g
[1]; kidneys, without blocking, read-out: ID/g, kidneys
  tissue uptake at 1.5 h: 7.72 ± 2.57 %ID/g
[1]; liver, NDP blocking (20 μg coinjected), read-out: ID/g, liver
  tissue uptake at 1.5 h: 5.16 ± 0.56 %ID/g
[1]; liver, c(RGDyK) blocking (200 μg coinjected), read-out: ID/g, liver
  tissue uptake at 1.5 h: 10.4 ± 3.65 %ID/g
[1]; liver, double blocking (NDP + c(RGDyK)), read-out: ID/g, liver
  tissue uptake at 1.5 h: 4.04 ± 1.06 %ID/g
[1]; liver, without blocking, read-out: ID/g, liver
  tissue uptake: 8.3 ± 2.77 %ID/g
[1]; lung, NDP blocking (20 μg coinjected), read-out: ID/g, lung
  tissue uptake at 1.5 h: 1.25 ± 0.06 %ID/g
[1]; lung, c(RGDyK) blocking (200 μg coinjected), read-out: ID/g, lung
  tissue uptake at 1.5 h: 2.75 ± 1.04 %ID/g
[1]; lung, double blocking (NDP + c(RGDyK)), read-out: ID/g, lung
  tissue uptake at 1.5 h: 0.88 ± 0.14 %ID/g
[1]; lung, without blocking, read-out: ID/g, lung
  tissue uptake at 1.5 h: 3.45 ± 1.15 %ID/g
[1]; muscle, NDP blocking (20 μg coinjected), read-out: ID/g, muscle
  tissue uptake at 1.5 h: 0.63 ± 0.07 %ID/g
[1]; muscle, c(RGDyK) blocking (200 μg coinjected), read-out: ID/g, muscle
  tissue uptake at 1.5 h: 1.62 ± 0.42 %ID/g
[1]; muscle, double blocking (NDP + c(RGDyK)), read-out: ID/g, muscle
  tissue uptake at 1.5 h: 2.58 ± 1.28 %ID/g
[1]; muscle, without blocking, read-out: ID/g, muscle
  tissue uptake at 1.5 h: 0.07 ± 0.02 %ID/g
[1]; pancreas, NDP blocking (20 μg coinjected), read-out: ID/g, pancreas
  tissue uptake at 1.5 h: 0.52 ± 0.12 %ID/g
[1]; pancreas, c(RGDyK) blocking (200 μg coinjected), read-out: ID/g, pancreas
  tissue uptake at 1.5 h: 0.66 ± 0.19 %ID/g
[1]; pancreas, double blocking (NDP + c(RGDyK)), read-out: ID/g, pancreas
  tissue uptake at 1.5 h: 0.32 ± 0.04 %ID/g
[1]; pancreas, without blocking, read-out: ID/g, pancreas
  tissue uptake at 1.5 h: 0.25 ± 0.08 %ID/g
[1]; small intestine, NDP blocking (20 μg coinjected), read-out: ID/g, small intestine
  tissue uptake: 1.6 ± 0.26 %ID/g
[1]; small intestine, c(RGDyK) blocking (200 μg coinjected), read-out: ID/g, small intestine
  tissue uptake: 1.46 ± 0.53 %ID/g
[1]; small intestine, double blocking (NDP + c(RGDyK)), read-out: ID/g, small intestine
  tissue uptake: 0.54 ± 0.08 %ID/g
[1]; small intestine, without blocking, read-out: ID/g, small intestine
  tissue uptake: 0.07 ± 0.02 %ID/g
[1]; spleen, NDP blocking (20 μg coinjected), read-out: ID/g, spleen
  tissue uptake: 1.51 ± 0.15 %ID/g
[1]; spleen, c(RGDyK) blocking (200 μg coinjected), read-out: ID/g, spleen
  tissue uptake: 1.71 ± 0.62 %ID/g
[1]; spleen, double blocking (NDP + c(RGDyK)), read-out: ID/g, spleen
  tissue uptake: 0.69 ± 0.1 %ID/g
[1]; spleen, without blocking, read-out: ID/g, spleen
  tissue uptake: 1.79 ± 0.31 %ID/g
[1]; stomach, NDP blocking (20 μg coinjected), read-out: ID/g, stomach
  tissue uptake: 1.03 ± 0.11 %ID/g
[1]; stomach, c(RGDyK) blocking (200 μg coinjected), read-out: ID/g, stomach
  tissue uptake: 0.99 ± 0.16 %ID/g
[1]; stomach, double blocking (NDP + c(RGDyK)), read-out: ID/g, stomach
  tissue uptake: 0.42 ± 0.03 %ID/g
[1]; stomach, without blocking, read-out: ID/g, stomach
  tissue uptake: 0.38 ± 0.13 %ID/g
[1]; tail, NDP blocking (20 μg coinjected), read-out: ID/g, tail
  tissue uptake at 1.5 h: 52.8 ± 5.59 %ID/g
[1]; tail, c(RGDyK) blocking (200 μg coinjected), read-out: ID/g, tail
  tissue uptake at 1.5 h: 44.3 ± 12.1 %ID/g
[1]; tail, double blocking (NDP + c(RGDyK)), read-out: ID/g, tail
  tissue uptake: 55.6 ± 7.12 %ID/g
[1]; tail, without blocking, read-out: ID/g, tail
  tissue uptake at 1.5 h: 25.3 ± 8.43 %ID/g
[2]; NDP blocking (20 μg coinjected), ex vivo after PET/CT scan, i.v., n = 3
  tissue uptake: 1.33 ± 0.27 %ID/g
[2]; c(RGDyK) blocking (200 μg coinjected), ex vivo after PET/CT scan, i.v., n = 3
  tissue uptake: 2.29 ± 0.24 %ID/g
[2]; double blocking (NDP + c(RGDyK)), ex vivo after PET/CT scan, i.v., n = 3
  tissue uptake: 2.49 ± 0.09 %ID/g
[2]; without blocking, ex vivo after PET/CT scan, i.v., n = 3
  tissue uptake: 2.58 ± 0.86 %ID/g
[2]; B16F10 tumor / blood, without blocking, read-out: tumor/blood ratio, B16F10
  tissue to tissue ratio: 4.36 ± 1.37
[2]; B16F10 tumor / kidneys, without blocking, read-out: tumor/kidneys ratio, B16F10
  tissue to tissue ratio: 0.38 ± 0.24
[2]; B16F10 tumor / liver, without blocking, read-out: tumor/liver ratio, B16F10
  tissue to tissue ratio: 0.36 ± 0.23
[2]; B16F10 tumor / muscle, without blocking, read-out: tumor/muscle ratio, B16F10
  tissue to tissue ratio: 38.6 ± 9.24
[2]; B16F10 tumor, without blocking, ex vivo after PET/CT scan, i.v., n = 3
  tissue uptake at 1.5 h: 2.58 ± 0.86 %ID/g
[3]
  ID/g, B16F10 tumor: 1.33 ± 0.27 % ID/g
